Measured values taken from US20130071897A1, “METHOD FOR CONTROLLING UNDESIRABLE BYPRODUCTS FORMATION CAUSED BY CONTAMINATING ORGANISMS IN THE PRODUCTION OF ETHANOL FROM SYNGAS” (COSKATA, INC., priority 2011, published 2013).
“And” between values parts separate entries of the source, which are not always exact repeats. Equal entries are not always repeated.

Tested on: butyrogen population
Test: 2-L continuous syngas fermenter with butyrogen-contaminated Clostridium autoethanogenum culture
Assay type: cell-based
Description: Additional experiments were conducted to determine the effect of the crotonyl derivatives in continuous fermentations containing butyrogen contamination. Compounds A and D were tested in a 2-L fermenter containing a seed culture from a 10,000 gallon bioreactor used in a large scale fermentation run.
To initiate the 2 liter fermentation a seed culture from the large scale fermenter was introduced into the 2 liter fermenter and grown on yeast extract to an OD greater than 1 at which time a substantial production of butyrogens was observed. The 2 liter fermenter was a Sartorius Biostat B Series fermenter that operated as a continuously stirred tank with a mixing speed of 200 rpm. After 24 hours of initial growth a gas stream having a composition 38% CO, 38% H2, 15% C02 and the balance CH4 was introduced into the fermenter. The fermentation was conducted at a temperature of 37° C., a pH of 5.30±0.05 and contained approximately 2 liters of fermentation media having a composition found in Table 8. Fresh fermentation media was continually added to the 2 liter fermenter at rate sufficient to establish a mean cell retention time of 5.8 days. The fermentation was allowed to progress and different concentrations of the compounds A and D were added to the fermentation as intermittent injections at different times. Each injection was allowed to wash out of the fermenter before next injection. The presence of acetate and butyrate compounds in the fermenter along with the OD of the fermentation media are shown in FIG. 3.
After approximately 500 hours of fermenter operation compound A was added directly into the fermenter to a concentration of 500 ppm when the OD was 1.82 and butyrate concentration was 4.5 g/L. Following introduction of the compound, the OD decreased rapidly by almost 50% in the first 24 hours and the butyrate concentration decreased by 20% in the same time period. Also in the first 24 hours the butanol content increased rapidly by 6-fold to 0.68 g/L, indicating rapid conversion of the butyric acid to butanol. The rate of conversion of the butyric acid and the dilution rate of the media combined to dramatically decrease the butyrate production rate until it was brought down to zero within 80 hours of initially adding compound A. (See FIG. 4) In addition the OD continued to decrease to a low of 0.54 after 80 hours.
After approximately 700 hours of fermenter operation and the washout of the first 500 ppm addition of compound A, another 50 ppm of compound A was added directly into the fermenter. A decrease in OD and butyrate concentration (See FIG. 3) followed the 50 ppm addition and continued for at least for the first 3 days.
After approximately another 8 days and the washout of the 50 ppm addition of compound A, the butyrate concentration increased to 2 g/L. At this time another 100 ppm of compound A was added directly into the fermenter approximately 890 hours into the run. […] After about 24 hours, the butyrate concentration began to decrease again declining almost 50% over the next 4 days. (See FIG. 3)
Fermenter operation was continued under the same operating conditions following the 100 ppm addition of compound A. After allowing 20 days for the complete wash out of compound A, 100 ppm of compound D was added directly into the fermenter approximately 1370 hours into the fermenter run. Upon the addition of compound D there was a sharp rise in the ethanol concentration and acetic acid concentration accompanied by a decrease in the butyrate production.
For 12 days after the first injection of compound D into the fermenter, the fermenter was allowed to wash out compound D. Then 500 ppm of compound D was injected directly into the fermenter after about 1660 hours of fermenter operation. (See FIG. 3) The resulting concentrations of the C2 and C4 alcohols and acids from the time of adding the 500 ppm of compound D are shown in Table 10.

[1] = 500 ppm compound A, 0.0 Hr after addition
[2] = 500 ppm compound A, 24.0 Hr after addition
[3] = 500 ppm compound A, 49.0 Hr after addition
[4] = 500 ppm compound A, 80.0 Hr after addition
[5] = 500 ppm compound A, 121.0 Hr after addition
[6] = 500 ppm compound A, 145.0 Hr after addition
[7] = 500 ppm compound A, first 24 hours
[8] = approximately 140 hours after 500 ppm addition of compound A
[9] = 100 ppm compound D at approximately 1370 hours
[10] = 500 ppm compound D, 0 Hr after addition
[11] = 500 ppm compound D, 30 Hr after addition
[12] = 500 ppm compound D, 49 Hr after addition
[13] = 500 ppm compound D, 73 Hr after addition
[14] = 500 ppm compound D, 123 Hr after addition
[15] = 500 ppm compound D, 145 Hr after addition
[16] = 500 ppm compound D, 168 Hr after addition
[17] = 500 ppm compound D, 193 Hr after addition
[18] = 500 ppm compound D, 217 Hr after addition
[19] = 500 ppm compound D, 240 Hr after addition

CCOC(=O)C=C(C(F)(F)F)C(F)(F)F [Compound A, ethyl 4,4,4-trifluoro-3-(trifluoromethyl)crotonate]
Effect on the butyrogen population shortly after addition (2-L butyrogenic reactor, 500, 50 and 100 ppm trials): inhibitory and bactericidal effect
Concentration of ethanol and acetic acid (50 ppm compound A at approximately 700 hours): continued increase
OD and butyrate concentration (50 ppm compound A at approximately 700 hours, at least first 3 days): decrease
Ethanol concentration (100 ppm compound A at approximately 890 hours): began to immediately increase
Decline of butyrate concentration (100 ppm compound A at approximately 890 hours, over 4 days, starting about 24 hours after addition): ~50%
Acetic acid [1]: 3.237 g/L
Butyric acid [1]: 4.5 g/L and 4.503 g/L
Ethanol [1]: 0.026 g/L
OD @600 nm [1]: 1.82
n-Butanol [1]: 0.109 g/L
Acetic acid [2]: 2.728 g/L
Butyric acid [2]: 3.600 g/L
Ethanol [2]: 0.266 g/L
OD @600 nm [2]: 1.09
n-Butanol [2]: 0.68 g/L and 0.681 g/L
Acetic acid [3]: 2.333 g/L
Butyric acid [3]: 3.074 g/L
Ethanol [3]: 0.255 g/L
OD @600 nm [3]: 0.76
n-Butanol [3]: 0.601 g/L
Acetic acid [4]: 1.959 g/L
Butyric acid [4]: 2.542 g/L
Ethanol [4]: 0.212 g/L
OD @600 nm [4]: 0.54
n-Butanol [4]: 0.497 g/L
Acetic acid [5]: 2.446 g/L
Butyric acid [5]: 1.842 g/L
Ethanol [5]: 0.345 g/L
OD @600 nm [5]: 0.75
n-Butanol [5]: 0.513 g/L
Acetic acid [6]: 4.082 g/L
Butyric acid [6]: 1.645 g/L
Ethanol [6]: 0.441 g/L
OD @600 nm [6]: 1.17
n-Butanol [6]: 0.311 g/L
Decrease of OD [7]: ~50%
Decrease of butyrate concentration [7]: 20%
Increase of butanol content [7]: 6 fold
Time until butyrate production rate was brought down to zero (500 ppm compound A, from initial addition): ≤ 80 h
Acetic acid production [8]: dramatic rise
Increase in ethanol [8]: over 100%
OD recovery [8]: nearly recovered to its original level

O=C(O)C=C(C(F)(F)F)C(F)(F)F [D, 4,4,4-trifluoro-3-(trifluoromethyl)crotonic acid]
Butanol concentration [9]: rose temporarily
Butyrate Production [9]: decrease
Ethanol concentration and acetic acid concentration [9]: sharp rise
Inhibition of butyrogens versus homoacetogenic organisms (500 ppm compound D): butyrogens were specifically inhibited whereas the homoacetogenic organisms were not inhibited
Acetic acid [10]: 8.72 g/L
Butyric acid [10]: 1.51 g/L
EtOH [10]: 0.55 g/L
OD @600 nm [10]: 1.40
n-Butanol [10]: 0.21 g/L
Acetic acid [11]: 8.48 g/L
Butyric acid [11]: 1.47 g/L
EtOH [11]: 0.61 g/L
OD @600 nm [11]: 1.35
n-Butanol [11]: 0.23 g/L
Acetic acid [12]: 8.64 g/L
Butyric acid [12]: 1.44 g/L
EtOH [12]: 0.69 g/L
OD @600 nm [12]: 1.23
n-Butanol [12]: 0.26 g/L
Acetic acid [13]: 8.56 g/L
Butyric acid [13]: 1.37 g/L
EtOH [13]: 0.68 g/L
OD @600 nm [13]: 1.12
n-Butanol [13]: 0.26 g/L
Acetic acid [14]: 8.72 g/L
Butyric acid [14]: 1.41 g/L
EtOH [14]: 0.53 g/L
OD @600 nm [14]: 0.92
n-Butanol [14]: 0.19 g/L
Acetic acid [15]: 8.75 g/L
Butyric acid [15]: 1.36 g/L
EtOH [15]: 0.88 g/L
OD @600 nm [15]: 1.12
n-Butanol [15]: 0.26 g/L
Acetic acid [16]: 8.83 g/L
Butyric acid [16]: 1.11 g/L
EtOH [16]: 0.95 g/L
OD @600 nm [16]: 1.38
n-Butanol [16]: 0.28 g/L
Acetic acid [17]: 8.86 g/L
Butyric acid [17]: 1.12 g/L
EtOH [17]: 0.87 g/L
OD @600 nm [17]: 1.18
n-Butanol [17]: 0.24 g/L
Acetic acid [18]: 9.05 g/L
Butyric acid [18]: 1.13 g/L
EtOH [18]: 0.84 g/L
OD @600 nm [18]: 1.24
n-Butanol [18]: 0.21 g/L
Acetic acid [19]: 9.21 g/L
Butyric acid [19]: 1.17 g/L
EtOH [19]: 0.82 g/L
OD @600 nm [19]: 1.25
n-Butanol [19]: 0.21 g/L
